Measurements taken from patent US20170050966A1, “INHIBITING THE TRANSIENT RECEPTOR POTENTIAL A1 ION CHANNEL” (HYDRA BIOSCIENCES, INC., priority 2014, published 2017).
Each block holds one compound with its values, some of them ahead of it.

Legend:
CYP1A2 = target: T1, CYP1A2 (Homo sapiens, UniProt P05177); test: CYP450 inhibition at 10 μM; type: biochemical; conditions: 1A2, substrate Phenacetin
T1 sequence (P05177 1-516): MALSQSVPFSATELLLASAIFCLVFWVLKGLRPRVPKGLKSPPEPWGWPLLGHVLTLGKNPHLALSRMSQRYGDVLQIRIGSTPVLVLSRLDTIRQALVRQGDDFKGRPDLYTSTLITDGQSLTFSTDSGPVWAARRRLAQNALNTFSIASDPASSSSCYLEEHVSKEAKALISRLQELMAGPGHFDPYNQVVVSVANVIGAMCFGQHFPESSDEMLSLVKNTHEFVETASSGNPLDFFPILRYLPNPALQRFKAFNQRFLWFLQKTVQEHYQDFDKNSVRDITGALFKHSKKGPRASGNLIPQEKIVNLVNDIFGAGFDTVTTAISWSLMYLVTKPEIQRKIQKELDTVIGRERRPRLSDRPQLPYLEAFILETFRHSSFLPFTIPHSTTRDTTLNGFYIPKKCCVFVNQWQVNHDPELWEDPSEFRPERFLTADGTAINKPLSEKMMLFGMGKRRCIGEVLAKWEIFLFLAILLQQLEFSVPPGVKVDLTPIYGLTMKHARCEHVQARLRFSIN

CYP2C19 = CYP2C19 (Homo sapiens, UniProt P33261); test: in vitro; conditions: probe Mephenytoin
CYP2D6 = CYP2D6 (Homo sapiens, UniProt P10635); test: in vitro
CYP2C9 = CYP2C9 (Homo sapiens, UniProt P11712); test: in vitro
CYP2C9, sequence (P11712 whole entry): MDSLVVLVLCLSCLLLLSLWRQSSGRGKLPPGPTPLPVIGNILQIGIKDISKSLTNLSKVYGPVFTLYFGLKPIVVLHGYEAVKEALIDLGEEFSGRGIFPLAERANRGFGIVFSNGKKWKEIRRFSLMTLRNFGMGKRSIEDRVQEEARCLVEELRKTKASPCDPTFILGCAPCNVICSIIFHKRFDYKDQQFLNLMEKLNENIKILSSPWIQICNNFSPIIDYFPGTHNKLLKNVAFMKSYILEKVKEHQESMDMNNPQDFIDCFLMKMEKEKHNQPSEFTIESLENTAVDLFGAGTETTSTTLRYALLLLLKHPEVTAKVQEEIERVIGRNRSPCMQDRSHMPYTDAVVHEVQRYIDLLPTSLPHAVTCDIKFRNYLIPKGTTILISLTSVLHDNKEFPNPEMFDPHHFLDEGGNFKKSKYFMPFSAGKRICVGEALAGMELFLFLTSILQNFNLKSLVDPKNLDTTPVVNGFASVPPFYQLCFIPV

CYP2C19, sequence (P33261 whole entry): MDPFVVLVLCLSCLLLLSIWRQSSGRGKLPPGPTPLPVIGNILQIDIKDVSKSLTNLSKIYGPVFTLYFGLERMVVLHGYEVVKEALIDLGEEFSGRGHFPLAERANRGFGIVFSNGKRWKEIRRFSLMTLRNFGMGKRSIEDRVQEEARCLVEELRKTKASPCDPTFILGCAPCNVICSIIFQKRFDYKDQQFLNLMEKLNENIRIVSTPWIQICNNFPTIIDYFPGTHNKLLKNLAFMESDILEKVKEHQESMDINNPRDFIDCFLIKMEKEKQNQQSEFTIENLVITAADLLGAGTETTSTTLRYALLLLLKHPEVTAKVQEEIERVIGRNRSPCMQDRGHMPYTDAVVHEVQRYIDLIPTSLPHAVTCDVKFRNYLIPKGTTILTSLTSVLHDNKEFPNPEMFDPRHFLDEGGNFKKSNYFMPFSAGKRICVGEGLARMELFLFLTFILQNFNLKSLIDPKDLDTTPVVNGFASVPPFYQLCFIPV
CYP2D6, sequence (P10635 whole entry): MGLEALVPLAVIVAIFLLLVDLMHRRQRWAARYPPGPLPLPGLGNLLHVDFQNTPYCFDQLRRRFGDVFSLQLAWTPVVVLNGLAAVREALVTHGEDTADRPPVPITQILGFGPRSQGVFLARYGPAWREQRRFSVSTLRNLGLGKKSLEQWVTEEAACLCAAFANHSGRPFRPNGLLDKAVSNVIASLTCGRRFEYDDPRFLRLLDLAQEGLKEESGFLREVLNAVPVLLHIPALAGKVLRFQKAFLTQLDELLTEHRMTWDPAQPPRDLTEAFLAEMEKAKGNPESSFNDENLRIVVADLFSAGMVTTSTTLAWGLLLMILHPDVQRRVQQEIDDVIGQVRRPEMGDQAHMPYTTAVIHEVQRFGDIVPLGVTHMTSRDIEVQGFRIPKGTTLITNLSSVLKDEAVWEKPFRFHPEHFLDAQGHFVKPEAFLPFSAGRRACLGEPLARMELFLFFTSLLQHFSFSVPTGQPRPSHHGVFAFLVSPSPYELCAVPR

Structure (SMILES): COCCCC/C(=N\OCCN)c1ccc(C(F)(F)F)cc1 [Fluvoxamine, reference compound]
inhibition at 10 µM (CYP1A2): 96.6%

inhibition at 10 µM (CYP2C19): 68.2%
Structure (SMILES): COc1ccc2[nH]c([S+]([O-])Cc3ncc(C)c(OC)c3C)nc2c1 (stereo not shown) [Omeprazole, reference compound]

Structure (SMILES): C=C[C@H]1C[N@@]2CC[C@H]1C[C@@H]2[C@@H](O)c1ccnc2ccc(OC)cc12 [Quinidine, reference compound]
inhibition at 1 μM (CYP2D6): 55.8%

Structure (SMILES): Nc1ccc(S(=O)(=O)Nc2ccnn2-c2ccccc2)cc1 [Sulfaphenazole, reference compound]
inhibition at 10 µM (CYP2C9): 95.3%
